Assay results published in ChEMBL document CHEMBL5034045, “Novel Macrocyclic Peptidylarginine Deiminase Type 4 (PAD4) Inhibitors” (ACS Med Chem Lett, 2022).

Target: Protein-arginine deiminase type-4 (Homo sapiens, UniProt Q9UM07)
Test: Inhibition of human PAD4 using BAEE as substrate incubated for 30 mins by spectrophotometric based assay

Sequence of Protein-arginine deiminase type-4 (Q9UM07 whole entry): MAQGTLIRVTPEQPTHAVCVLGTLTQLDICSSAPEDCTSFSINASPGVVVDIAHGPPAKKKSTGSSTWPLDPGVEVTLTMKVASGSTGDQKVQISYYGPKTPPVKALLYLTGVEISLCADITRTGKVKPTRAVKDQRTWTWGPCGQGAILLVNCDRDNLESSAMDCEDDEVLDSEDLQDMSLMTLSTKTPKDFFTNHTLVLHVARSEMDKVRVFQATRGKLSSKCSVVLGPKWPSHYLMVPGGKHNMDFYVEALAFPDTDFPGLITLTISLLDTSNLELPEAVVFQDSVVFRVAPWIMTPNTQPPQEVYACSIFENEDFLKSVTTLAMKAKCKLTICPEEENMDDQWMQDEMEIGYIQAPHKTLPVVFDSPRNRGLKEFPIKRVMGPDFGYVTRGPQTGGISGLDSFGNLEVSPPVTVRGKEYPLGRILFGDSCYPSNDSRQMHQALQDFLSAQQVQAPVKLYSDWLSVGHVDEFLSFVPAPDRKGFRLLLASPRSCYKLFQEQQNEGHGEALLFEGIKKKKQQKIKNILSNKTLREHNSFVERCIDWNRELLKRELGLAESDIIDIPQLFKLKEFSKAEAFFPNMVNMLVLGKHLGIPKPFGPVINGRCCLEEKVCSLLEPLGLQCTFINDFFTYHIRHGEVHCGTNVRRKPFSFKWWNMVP

| SMILES | IC50 |
| --- | --- |
| [2H]C1([2H])[C@H](N)[C@@H]2CC[C@@H](C2)N1C(=O)c1cc(OC)c2c(c1)nc(-c1cc3ccc4nc3n1CCCCCc1ccccc1C(=O)NC4C)n2C (stereo partly specified) | 5 nM |
| CC1NC(=O)[C@@H]2CC2CCCC(F)(F)Cn2c(-c3nc4cc(C(=O)N5CCC[C@@H](N)[C@H]5C)cc(Cl)c4n3C3CC3)cc3ccc1nc32 (stereo partly specified) | 6 nM |
| COc1cc(C(=O)N2C[C@H](N)[C@@H]3CC[C@H]2C3)cc2nc(-c3cc4ccc5nc4n3CCCCCC3[C@H](C(=O)NC5C)C3(F)F)n(C)c12 (stereo partly specified) | 5 nM |

More lines, now with the values ahead:

| IC50 | SMILES |
| --- | --- |
| 5 nM | CC1NC(=O)[C@@H]2C[C@@]2(F)CCCC(F)(F)Cn2c(-c3nc4cc(C(=O)N5CCC[C@@H](N)[C@H]5C)cc(F)c4n3C3CC3)cc3ccc1nc32 (stereo partly specified) |
| 5 nM | CC1NC(=O)c2cc3sccc3nc2CCCCCn2c(-c3nc4cc(C(=O)N5CCC[C@@H](N)[C@H]5C)cc(F)c4n3C3CC3)cc3ccc1nc32 (stereo partly specified) |
| 6 nM | Cc1ccc2c(n1)CCCCCn1c(-c3nc4cc(C(=O)N5C[C@H](N)[C@@H]6CC[C@H]5C6)cc(F)c4n3C3CC3)cc3ccc(nc31)C(C)NC2=O (stereo partly specified) |
